In patent US12357636B2 (Urovant Sciences GmbH, priority 2018, dated 2025):
Where two headings read alike, the source gives them in different places.

Tests used:
men and women with OAB = test: Phase 2b study in OAB: efficacy (voiding diary); type: in vivo, human; details: tolterodine ER 4 mg QD
Description: Part 2 was designed to continue to assess the safety and efficacy of concomitant dosing. […] Subjects in both Part 1 and Part 2 had the option of enrolling in a 1-year extension. Participants were required to keep a voiding diary, recording the occurrence of each strong urge, total incontinence, and urge incontinence episode. Efficacy data for Part 1 and Part 2 are summarized herein.
The total number of urgency incontinence episodes must have exceeded the total number of stress incontinence episodes for all subjects.
Conversely, a dose dependent effect on urge incontinence or total incontinence was not observed.

[1] = tested on: patients with overactive bladder
Description: A placebo group was included in the main study, and a group that received tolterodine monotherapy was included in the main study and in the extension.

patients with OAB = test: Phase 2b study: cardiovascular safety, orthostatic AEs, blood pressure and heart rate changes (Table 17); type: in vivo, human; details: tolterodine 4 mg
Description: None led to discontinuation. The overall incidence of orthostatic symptoms was low.
Small differences in the percent of subjects exceeding categorical heart rate and blood pressure thresholds for vibegron were similar to those in the tolterodine arm.

[2] = tested on: men and women with overactive bladder; test: Phase 3 study vibegron 75 mg vs placebo and tolterodine, 12 weeks, OAB: efficacy (Tables 21-25); type: in vivo, human; details: for Micturitions: Week 12 CFB Mean / Urgency Episodes: Week 12 CFB Mean / UUI: Week 12 CFB Mean: descriptive statistics; for UUI: Week 12 CFB Mean: daily UUI episodes
Description: Enrollment of patients included individuals with OAB Wet (those with UUI, the involuntary loss of urine accompanied by urgency) and OAB Dry (those without UUI). A total of 1,518 patients were randomized across 215 study sites into one of three groups for a 12-week treatment period.
The study consisted of a Screening Period (1 to 5 weeks), a single-blind Run-in Period (2 weeks), a randomized double-blind Treatment Period (12 weeks), and a Follow-up Period (4 weeks).
Tolterodine ER 4 mg was the active control. […] Between the Baseline and Week 12 Visits, patients had study assessments at Week 4 and Week 8.
For the analysis of the co-primary endpoints (change from baseline in average number of daily micturitions at Week 12 and change from baseline in average number of daily urge urinary incontinence episodes at Week 12, and placebo adjustment of each), a mixed model for repeated measure (MMRM) with restricted maximum likelihood estimation was used. This model corrects for dropout and accounts for the fact that measurements taken on the same patient over time tend to be correlated by using all available information on patients within the same covariate set to derive an estimate of the treatment effect for a dropout-free population. The analysis model for each efficacy endpoint includes terms for treatment, visit, OAB Type (Wet vs Dry), Sex (Female vs Male), Region (US vs Rest of World), baseline score, and interaction of visit by treatment.
Primary inferences were drawn from treatment differences for the changes from baseline derived from the MMRM models at Week 12. As part of secondary objectives, the treatment differences for each post baseline visit were also derived using the same MMRM model.
An unstructured covariance matrix was used to model the correlation among repeated measurements. The Kenward-Roger adjustment was used with restricted (or residual) maximum likelihood (REML) to make statistical inference. If the unstructured covariance model fails to converge with the default Newton-Raphson algorithm, the Fisher scoring algorithm or other appropriate methods can be used to provide initial values of the covariance parameters. In the rare event that none of the above methods yield convergence, a structured covariance would be used to model the correlation among repeated measurements.
The change from baseline efficacy endpoints was analyzed using the same MMRM model described for co-primary endpoints.
Analysis of the efficacy endpoints of proportion of patients with at least 75% reduction in the average number of daily UUI episodes at Week 12 and proportion of patients with 50% reduction in the average number of daily urgency episodes at Week 12 was analyzed using the Cochran-Mantel-Haenszel risk difference estimate. Missing Week 12 data was analyzed using multiple imputation. The estimated difference in the proportion of responders and 95% confidence interval for the difference was calculated using the Cochran-Mantel-Haenszel risk difference estimate stratified by OAB Type (Wet vs Dry) and Sex (Female vs Male), with weights proposed by Greenland and Robins.
The same statistical methods that were used to analyze the co-primary and secondary efficacy endpoints were used for the exploratory analyses. Exploratory responder analyses were analyzed using the same Cochran-Mantel-Haenszel model as described above for secondary endpoints.

[3] = tested on: men and women with overactive bladder; test: Phase 3 study vibegron 75 mg: post-void residual urine volume (Tables 26-28); type: in vivo, human
Description: The risk of acute urinary retention or morbidities related to an increase in Post-Void Residual (PVR) is a concern with antimuscarinic therapy that promotes smooth muscle relaxation by inhibiting acetylcholine-induced smooth muscle contraction. If, during contraction, the bladder cannot generate enough pressure to overcome the outlet resistance in the urethra, either because of poor detrusor contractility or profound obstruction (most commonly from BPH), acute urinary retention or incomplete emptying of the bladder may result.
The volume of urine that remains in the bladder after voiding (PVR) is an objective measurement that may serve as a proxy for impaired ability to void.
PVR were performed via ultrasound at the visits indicated in the Schedule of Activities.
In addition, the data on the Post Void Residual Urine Volume (PVR) in all males and males with a medical history of BPH is shown in Tables 26 and 27, respectively.

[4] = drug interaction of vibegron and metoprolol succinate (CYP2D6 substrate); type: in vivo, human
[5] = mass balance study with [14C]vibegron; details: 2 and 4 hr
[6] = counts based on 3 consecutive post-baseline visits
[7] = Week 12, co-primary endpoint, once-daily vibegron 75 mg or tolterodine
[8] = Week 12, key secondary endpoint, once-daily vibegron 75 mg or tolterodine
[9] = Males with medical history of BPH
[10] = all males, vibegron 75 mg or tolterodine ER 4 mg QD
[11] = metoprolol 100 mg, vibegron 75 mg

In the case of `Cc1ccc(O)c([C@H](CCN(C(C)C)C(C)C)c2ccccc2)c1` [Tolterodine ER, tolterodine], the “Micturitions difference from placebo in LS means, Week 8” value (men and women with OAB) is reported as −0.54, the “Urgency Episodes difference from placebo in LS means, Week 8” value (men and women with OAB) is reported as −0.94 and the “Total Incontinence Episodes difference from placebo in LS means, Week 8” value (men and women with OAB; OAB Wet) is reported as −0.34. The “Urgency Incontinence Episodes difference from placebo in LS means, Week 8” value (men and women with OAB; OAB Wet) was −0.46, the Accidental overdose ([1]; ER 4 mg QD) was 6 (2.3) n (%) and the Alanine aminotransferase increased ([1]; ER 4 mg QD) was 1 (0.4) n (%). The Arthralgia ([1]; ER 4 mg QD) was 3 (1.2) n (%), the Aspartate aminotransferase increased ([1]; ER 4 mg QD) was 0 (0.0) n (%) and the Constipation ([1]; ER 4 mg QD) was 5 (1.9) n (%). For the same compound, the Diarrhea ([1]; ER 4 mg QD) was 9 (3.5) n (%), the “Discontinuation due to AE” value ([1]; ER 4 mg QD) was 4 (1.6) n (%) and the “Discontinuation due to drug-related AE” value ([1]; ER 4 mg QD) was 0 n (%). For the same compound, the Dizziness ([1]; ER 4 mg QD) was 5 (1.9) n (%), the “Drug-related AE” value ([1]; ER 4 mg QD) was 42 (16.3) n (%) and the Dry eye ([1]; ER 4 mg QD) was 10 (3.9) n (%). The Dry mouth ([1]; ER 4 mg QD) was 22 (8.6) n (%), the Dysuria ([1]; ER 4 mg QD) was 3 (1.2) n (%) and the Fatigue ([1]; ER 4 mg QD) was 6 (2.3) n (%). For the same compound, the Headache ([1]; ER 4 mg QD) was 9 (3.5) n (%), the Nasopharyngitis ([1]; ER 4 mg QD) was 4 (1.6) n (%) and the Nausea ([1]; ER 4 mg QD) was 6 (2.3) n (%). For the same compound, the Osteoarthritis ([1]; ER 4 mg QD) was 0 (0.0) n (%), the Pain in extremity ([1]; ER 4 mg QD) was 1 (0.4) n (%) and the “Serious AE” value ([1]; ER 4 mg QD) was 3 (1.2) n (%). For the same compound, the Sinusitis ([1]; ER 4 mg QD) was 1 (0.4) n (%), the Urinary tract infection ([1]; ER 4 mg QD) was 12 (4.7) n (%) and the “≥1 AE” value ([1]; ER 4 mg QD) was 116 (45.1) n (%). For the same compound, the “Serious AE” value ([1]; ER 4 mg QD, listed as tolterodine) was 3 n (%), the frequency of injuries ([1]; Phase 2, tolterodine arm vs vibegron) was 2.1% and the “DBP Change from Baseline [≥] 5 mm Hg, n/N (%)” value (patients with OAB; [6]) was 30/242 (12.4) %. The “DBP Change from Baseline [≥] 10 mm Hg, n/N (%)” value (patients with OAB; [6]) was 13/242 (5.4) %, the “DBP Change from Baseline ≥15 mm Hg, n/N (%)” value (patients with OAB; [6]) was 3/242 (1.2) % and the “HR Change from Baseline [≥] 5 mm Hg, n/N (%)” value (patients with OAB; [6]) was 29/242 (12.0) %. The “HR Change from Baseline [≥] 10 bpm, n/N (%)” value (patients with OAB; [6]) was 11/242 (4.5) %, the “HR Change from Baseline ≥15 bpm, n/N (%)” value (patients with OAB; [6]) was 4/242 (1.7) % and the “SBP Change from Baseline [≥] 5 mm Hg, n/N (%)” value (patients with OAB; [6]) was 41/242 (16.9) %. The “SBP Change from Baseline [≥] 10 mm Hg, n/N (%)” value (patients with OAB; [6]) was 19/242 (7.9) %, the “SBP Change from Baseline ≥15 mm Hg, n/N (%)” value (patients with OAB; [6]) was 7/242 (2.9) % and the “DBP Change from Baseline, Mean (95% CI) Max” value (patients with OAB; mean maximum from week 1 to 8) was 5.19 (4.26, 6.13) mm Hg. For the same compound, the “HR Change from Baseline, Mean (95% CI) Maximum” value (patients with OAB; mean maximum from week 1 to 8) was 5.66 (4.69, 6.63) bpm, the “SBP Change from Baseline, Mean (95% CI) Maximum” value (patients with OAB; mean maximum from week 1 to 8) was 7.29 (6.01, 8.57) mm Hg and the “DBP Change from Baseline, Mean (95% CI) (week 1)” value (patients with OAB; week 1) was −0.12 (−1.10, 0.86) mm Hg. For the same compound, the “HR Change from Baseline, Mean (95% CI) (week 1)” value (patients with OAB; week 1) was 0.68 (−0.31, 1.67) bpm, the “SBP Change from Baseline, Mean (95% CI) (week 1)” value (patients with OAB; week 1) was 0.04 (−1.36, 1.43) mm Hg and the “Micturitions: Week 12 CFB Mean” value ([2]; Males with BPH) was −1.25. For the same compound, the “Urgency Episodes: Week 12 CFB Mean” value ([2]; Males with BPH) was −3.29, the “UUI: Week 12 CFB Mean” value ([2]; Males with BPH) was −2.15 and the “Micturitions: Week 12 CFB Mean” value ([2]; Males without BPH) was −1.29. For the same compound, the “Urgency Episodes: Week 12 CFB Mean” value ([2]; Males without BPH) was −2.32, the “UUI: Week 12 CFB Mean” value ([2]; Males without BPH) was −2.05 and the “Micturitions: Week 12 CFB Mean” value ([2]; Overall for Males) was −1.28. The “Micturitions: Week 12 CFB Mean” value ([2]; Overall) was −1.78, the “Urgency Episodes: Week 12 CFB Mean” value ([2]; Overall) was −2.57 and the “UUI: Week 12 CFB Mean” value ([2]; Overall) was −1.75. The “Micturitions, Week 12 LS Mean Change from Baseline (Placebo-Adjusted)” value [2, 7] was −0.3, the “UUI Episodes, Week 12 LS Mean Change from Baseline (Placebo-Adjusted)” value [2, 7] was −0.4 and the “OAB-q Coping Score, Week 12 LS Mean Change from Baseline (Placebo-Adjusted)” value [2, 8] was 3.1. For the same compound, the “Total Incontinence Episodes, Week 12 LS Mean Change from Baseline (Placebo-Adjusted)” value [2, 8] was −0.5, the “Urgency Episodes, Week 12 LS Mean Change from Baseline (Placebo-Adjusted)” value [2, 8] was −0.4 and the “Volume Voided, Week 12 LS Mean Change from Baseline (Placebo-Adjusted)” value [2, 8] was 13.3 mL. For the same compound, the “PVR Categories at Week 12: <100 mL” value [3, 9] was 71.4%, the “PVR Categories at Week 12: ≥100 mL to <200 mL” value [3, 9] was 28.6% and the “PVR Categories at Week 12: ≥200 mL to <350 mL” value [3, 9] was 0%. The “PVR Categories at Week 12: ≥350 mL” value [3, 9] was 0%, the “PVR Mean Change from Baseline at Week 12 (SD)” value (from here on “PVR Mean Change … (SD)”) [3, 9] was 3.7 (50.64) mL and the “PVR Mean Change … (SD)” value [3, 10] was 10.2 (44.24) mL. For the same compound, the “PVR category <100 mL at Week 12” value [3, 10] was 85.2%, the “PVR category ≥100 mL to <200 mL at Week 12” value [3, 10] was 11.5% and the “PVR category ≥200 mL to <350 mL at Week 12” value [3, 10] was 3.3%. For the same compound, the “PVR category ≥350 mL at Week 12” value [3, 10] was 0, the “PVR Categories at Week 12: <100 mL” value ([3]; study population as a whole) was 86.5% and the “PVR Categories at Week 12: ≥100 mL to <200 mL” value ([3]; study population as a whole) was 5.8%. The “PVR Categories at Week 12: ≥200 mL to <350 mL” value ([3]; study population as a whole) was 0.7%, the “PVR Categories at Week 12: ≥350 mL” value ([3]; study population as a whole) was 0% and the “PVR Mean Change … (SD)” value ([3]; study population as a whole) was 3.1 (40.93) mL.
With `COCCc1ccc(OCC(O)CNC(C)C)cc1` (stereo not shown) [Metoprolol, metoprolol succinate] the “AUC0-∞ ratio of GLS mean, metoprolol + vibegron/metoprolol alone” value [4, 11] was 1.40, the “Cmax ratio of GLS mean, metoprolol + vibegron/metoprolol alone” value [4, 11] was 1.49 and the “geometric mean Cmax and AUC in the presence of vibegron” value ([4]; metoprolol succinate 100 mg, vibegron 75 mg QD) was “increased slightly”.
For `O=C(O)C1OC(OC(c2ccccc2)C2CCC(Cc3ccc(NC(=O)C4CCc5nccc(=O)n54)cc3)N2)C(O)C(O)C1O` (stereo not shown) [M7], the “share of total circulating drug-related material in human plasma” value [5] was 12-14%.
